Measured values taken from patent US20150152080A1, “BENZOTHIOPHENE SULFONAMIDES DERIVATIVES AS CHEMOKINE RECEPTOR MODULATORS” (Allergan, Inc., priority 2013, published 2015).

Target: T1, CCR2 (Homo sapiens, UniProt P41597)
T1 construct: expressed in transfected cells; geneticin and hygromycin selection
Test: Calcium activity assay on FLIPR Tetra in HEK-Gqi5 cells stably expressing CCR2
Assay type: cell-based
Details: for Emax: read-out: CCR2 ANTAGONISM Rel. Eff. (%)
Procedure: HEK-Gqi5 cells stably expressing CCR2 were cultured in DMEM high glucose, 10% FBS, 1% PSA, 400 μg/ml geneticin and 50 μg/ml hygromycin. Appropriate positive control chemokines (MCP-1, MIP1A or RANTES) was used as the positive control agonist for screening compound-induced calcium activity assayed on the FLIPR^Tetra. The drug plates were prepared in 384-well microplates using the EP3 and the MultiPROBE robotic liquid handling systems. Compounds were synthesized and tested for CCR2 activity.

T1 sequence (P41597 whole entry, species assumed): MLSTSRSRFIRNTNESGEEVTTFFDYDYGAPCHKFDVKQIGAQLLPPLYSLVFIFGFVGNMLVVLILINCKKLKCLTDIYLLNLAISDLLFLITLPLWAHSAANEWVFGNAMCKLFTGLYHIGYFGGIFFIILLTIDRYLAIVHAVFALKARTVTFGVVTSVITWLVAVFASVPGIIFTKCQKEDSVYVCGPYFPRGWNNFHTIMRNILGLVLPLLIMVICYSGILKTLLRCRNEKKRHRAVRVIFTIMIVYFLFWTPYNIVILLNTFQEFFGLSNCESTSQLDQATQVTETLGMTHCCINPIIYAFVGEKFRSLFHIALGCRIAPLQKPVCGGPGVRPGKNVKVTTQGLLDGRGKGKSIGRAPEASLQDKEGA

| IC50 [nM] | Emax [%] | SMILES |
| --- | --- | --- |
| 198 | 86 | COC(=O)c1ccccc1CSc1ccc(Cl)cc1NS(=O)(=O)c1cc2ccccc2s1 [Compound 1] |
| 4 | 100 | O=C(O)c1ccccc1CSc1ccc(Cl)cc1NS(=O)(=O)c1cc2ccccc2s1 [Compound 2, 2-[({2-[(1-Benzothiophen-2-ylsulfonyl)amino]-4-chlorophenyl}sulfanyl)methyl]benzoic acid] |
|  | 99 | Cc1ccc(SCc2ccccc2C(=O)O)c(NS(=O)(=O)c2cc3ccccc3s2)c1 [Compound 4, 2-[({2-[(1-Benzothiophen-2-ylsulfonyl)amino]-4-methylphenyl}sulfanyl)methyl]benzoic acid] |
| 77 | 98 | Nc1cccc(CS(=O)(=O)c2ccc(Cl)cc2NS(=O)(=O)c2cc3ccccc3s2)c1 [Compound 7, N-{2-[(3-Aminobenzyl)sulfonyl]-5-chlorophenyl}-1-benzothiophene-2-sulfonamide] |
| 114 | 88 | Cc1ccc(NS(=O)(=O)c2cc3ccccc3s2)c(SCc2ccccc2C(=O)O)c1 [Compound 9, 2-[({2-[(1-Benzothiophen-2-ylsulfonyl)amino]-5-methylphenyl}sulfanyl)methyl]benzoic acid] |
| 2250 | 44 | O=S(=O)(Nc1cccnc1SCc1ccccc1)c1cc2ccccc2s1 [Compound 10, N-[2-(Benzylsulfanyl)pyridin-3-yl]-1-benzothiophene-2-sulfonamide] |
| 85 | 93 | O=S(=O)(Cc1ccccc1)c1ncccc1NS(=O)(=O)c1cc2ccccc2s1 [Compound 11, N-[2-(Benzylsulfonyl)pyridin-3-yl]-1-benzothiophene-2-sulfonamide] |
| 122 | 72 | O=S(=O)(Nc1cccnc1[S+]([O-])Cc1ccccc1)c1cc2ccccc2s1 (stereo not shown) [Compound 12, N-[2-(Benzylsulfinyl)pyridin-3-yl]-1-benzothiophene-2-sulfonamide] |
| 268 | 68 | COC(=O)c1ccccc1CSc1ccc(F)cc1NS(=O)(=O)c1cc2ccccc2s1 [Compound 13, methyl 2-[({2-[(1-benzothiophen-2-ylsulfonyl)amino]-4-fluorophenyl}sulfanyl)methyl]benzoate] |
| < 10 | 96 | O=C(O)c1ccccc1CSc1ccc(F)cc1NS(=O)(=O)c1cc2ccccc2s1 [Compound 14, 2-[({2-[(1-benzothiophen-2-ylsulfonyl)amino]-4-fluorophenyl}sulfanyl)methyl]benzoic acid] |
